{
  "source": "paper PMC6354023",
  "about": "“A phase I study of the HDM2 antagonist SAR405838 combined with the MEK inhibitor pimasertib in patients with advanced solid tumours” (British Journal of Cancer, 2018)",
  "key": {"[1]": {"assay": "Safety assessments: adverse events (NCI-CTCAE v4.03), laboratory abnormalities", "assay_type": "in vivo, human", "details": "of 26 treated patients, in combination", "quoted_text": "Safety was assessed by the evaluation of AEs, DLTs, changes in vital signs, ECOG PS, physical examinations,12-lead electrocardiograms, determination of LVEF, ophthalmological examinations and clinical laboratory tests (including haematology, coagulation, blood chemistry and urinalysis)."}, "[2]": {"assay": "Pharmacokinetics of SAR405838 (whole-blood concentrations) in combination", "assay_type": "in vivo, human", "details": "for AUC(0-t) / Cmax / half-life / Tmax: human, whole blood, oral; for AUC(0-t): read-out: SAR405838 AUC0–24, mean ± SD; for Cmax: read-out: SAR405838 Cmax, mean ± SD; for half-life: read-out: SAR405838 t1/2 (converted); for Tmax: read-out: SAR405838 tmax, median (range)", "source_text": "Blood samples were collected on Days 1 (for pimasertib only), 2, 3, 8 and 15 of Cycle 1, on Days 1 and 2 of Cycle 2, and on Day 1 of Cycles 3 and 4, to determine the whole-blood and plasma concentrations of SAR405838 and pimasertib, respectively."}, "MIC-1": {"test_system": "MIC-1", "assay": "MIC-1 levels in plasma by ELISA", "assay_type": "in vivo, human", "method": "MIC-1 protein concentrations were measured in plasma samples using an analytically validated enzyme-linked immunosorbent assay (Quantikine® Human GDF-15 immunoassay). pERK levels were determined by evaluating median value changes in response to ex vivo stimulation with or without phorbol myristate acetate (PMA) over time in whole-blood samples (CD 45^+ and lymphocyte populations) by flow cytometry (BD FACSCanto™ II instrument). Stimulated pERK levels were calculated as percentage (PMA-dimethylsulphoxide [DMSO])/DMSO)."}, "[3]": {"details": "cited from earlier work"}, "[4]": {"details": "DL1 SAR405838 200 mg QD + pimasertib 45 mg BID, C1D2"}, "[5]": {"details": "DL1 SAR405838 200 mg QD + pimasertib 45 mg BID, C2D1"}, "[6]": {"details": "DL2a SAR405838 200 mg QD + pimasertib 60 mg QD, C1D2"}, "[7]": {"details": "DL2a SAR405838 200 mg QD + pimasertib 60 mg QD, C2D1"}, "[8]": {"details": "DL2b SAR405838 300 mg QD + pimasertib 45 mg BID, C1D2"}, "[9]": {"details": "DL2b SAR405838 300 mg QD + pimasertib 45 mg BID, C2D1"}, "[10]": {"details": "DL3a SAR405838 300 mg QD + pimasertib 60 mg QD, C1D2"}, "[11]": {"details": "DL3a SAR405838 300 mg QD + pimasertib 60 mg QD, C2D1"}},
  "note": "Where two headings read alike, the source gives them in different places.",
  "data": [
    {"compound": "CC(C)(C)C[C@@H]1N[C@@H](C(=O)N[C@H]2CC[C@H](O)CC2)[C@H](c2cccc(Cl)c2F)[C@]12C(=O)Nc1cc(Cl)ccc12", "note": "[SAR405838]", "values": [
      {"measurement": "Patients with dose modification, reduction or omission", "setting": "[1]", "result": 17, "unit": "patients"},
      {"measurement": "PK in combination compared with PK as monotherapy", "setting": "[2]; SAR405838 and pimasertib administered in combination", "result": "similar"},
      {"measurement": "Exposure change with dose increase (50%)", "setting": "[2]; between DL1/DL2a (SAR405838 200 mg) and DL2b/DL3a (SAR405838 300 mg)", "result": "did not result in SAR405838 exposure increase"},
      {"measurement": "AUC(0-t)", "setting": "[2]; [4]", "result": 19300, "unit": "ng·h/mL"},
      {"measurement": "Cmax", "setting": "[2]; [4]", "result": "1570 ± 876", "unit": "ng/mL"},
      {"measurement": "half-life", "setting": "[2]; [4]", "result": "16.1 ± 7.75", "unit": "h"},
      {"measurement": "Tmax", "setting": "[2]; [4]", "result": 2, "unit": "h"},
      {"measurement": "AUC(0-t)", "setting": "[2]; [5]", "result": 14600, "unit": "ng·h/mL"},
      {"measurement": "Cmax", "setting": "[2]; [5]", "result": "1250 ± 668", "unit": "ng/mL"},
      {"measurement": "half-life", "setting": "[2]; [5]", "result": 10.8, "unit": "h"},
      {"measurement": "Tmax", "setting": "[2]; [5]", "result": 1.8, "unit": "h"},
      {"measurement": "AUC(0-t)", "setting": "[2]; [6]", "result": 20800, "unit": "ng·h/mL"},
      {"measurement": "Cmax", "setting": "[2]; [6]", "result": "1500 ± 634", "unit": "ng/mL"},
      {"measurement": "half-life", "setting": "[2]; [6]", "result": 8.86, "unit": "h"},
      {"measurement": "Tmax", "setting": "[2]; [6]", "result": 2, "unit": "h"},
      {"measurement": "AUC(0-t)", "setting": "[2]; [7]", "result": 15600, "unit": "ng·h/mL"},
      {"measurement": "Cmax", "setting": "[2]; [7]", "result": "1050 ± 581", "unit": "ng/mL"},
      {"measurement": "half-life", "setting": "[2]; [7]", "result": 10, "unit": "h"},
      {"measurement": "Tmax", "setting": "[2]; [7]", "result": 2.8, "unit": "h"},
      {"measurement": "AUC(0-t)", "setting": "[2]; [8]", "result": 16300, "unit": "ng·h/mL"},
      {"measurement": "Cmax", "setting": "[2]; [8]", "result": "1100 ± 547", "unit": "ng/mL"},
      {"measurement": "half-life", "setting": "[2]; [8]", "result": "15.5 ± 4.33", "unit": "h"},
      {"measurement": "Tmax", "setting": "[2]; [8]", "result": 3, "unit": "h"},
      {"measurement": "AUC(0-t)", "setting": "[2]; [9]", "result": 15000, "unit": "ng·h/mL"},
      {"measurement": "Cmax", "setting": "[2]; [9]", "result": "1100 ± 361", "unit": "ng/mL"},
      {"measurement": "half-life", "setting": "[2]; [9]", "result": "13.4 ± 2.38", "unit": "h"},
      {"measurement": "Tmax", "setting": "[2]; [9]", "result": 1.5, "unit": "h"},
      {"measurement": "AUC(0-t)", "setting": "[2]; [10]", "result": 21400, "unit": "ng·h/mL"},
      {"measurement": "Cmax", "setting": "[2]; [10]", "result": "1490 ± 939", "unit": "ng/mL"},
      {"measurement": "half-life", "setting": "[2]; [10]", "result": "13.3 ± 4.94", "unit": "h"},
      {"measurement": "Tmax", "setting": "[2]; [10]", "result": 4, "unit": "h"},
      {"measurement": "AUC(0-t)", "setting": "[2]; [11]", "result": 21200, "unit": "ng·h/mL"},
      {"measurement": "Cmax", "setting": "[2]; [11]", "result": "1440 ± 583", "unit": "ng/mL"},
      {"measurement": "half-life", "setting": "[2]; [11]", "result": "14.9 ± 11.1", "unit": "h"},
      {"measurement": "Tmax", "setting": "[2]; [11]", "result": 2, "unit": "h"},
      {"measurement": "Time of peak MIC-1 elevation", "setting": "MIC-1; C1D2 and C2D1", "result": 6, "unit": "h"},
      {"measurement": "Greatest increase in MIC-1 in the DL1 cohort", "setting": "MIC-1; patient with confirmed PR (endometrial tumour)", "result": 8.8, "unit": "fold"},
      {"measurement": "MIC-1 elevation, mean vs baseline", "setting": "MIC-1; plasma, all patients at C1D2 and C2D1", "result": "3.5+ /− 0.8 fold"},
      {"measurement": "Main dose-limiting toxicity, monotherapy", "setting": "[3]", "result": "thrombocytopenia"},
      {"measurement": "MTD and recommended phase II dose, monotherapy", "setting": "[3]; once daily (QD)", "result": 300, "unit": "mg"}
    ]}
  ]
}
